Test results as given in patent US20240255521A1, “Cilia Protein as Biomarkers and Methods of Use” (The Medical College of Wisconsin, Inc., priority 2021, published 2024).
Entries after “also recorded” stand apart in the source; their conditions may differ.

Legend:
[1] = system: HBMVECs; assay: PMA-induced oxidative stress in HBMVECs with or without NOX inhibitor; ROS, HO-1 and cilia proteins by flow cytometry (MFI); type: cell-based, human
Method: Primary HBMVECs (Cell Systems Corporation catalog ACBRI 376) and HUVECs (Glyco Tech) were maintained at 37° C. in a 5% CO2 incubator in endothelial cell complete medium (Promocell, catalog C22010). As per vendor's description, cells were isolated from the cortex region of the brain from a pediatric donor. The cells were isolated without using antibody labeling to preserve the cells' natural properties for enhanced biological relevance. LL-CPK1 (CL101.1TM) porcine renal epithelial cells from proximal tubule were obtained from ATCC. All cell culture wells were seeded equally, and wells were randomized to control versus experimental conditions with duplicates or triplicates per condition. All experiments were performed between passages 4 and 6. Cells that had reached approximately 90% confluence were used in the shear stress experiment. For ROS quantification experiments, cells were treated with PMA (Sigma, catalog P8139-5MG) at a concentration of 50 ng/mL for 1 hour. To inhibit ROS production in respective experimental groups, cells were treated with 20 μM NOX inhibitor VAS 2870 (Sigma, catalog SML0273-5MG) 1 hour prior to PMA treatment.
Single-cell suspensions were washed 3 times with FACS buffer (1×PBS with 5% FBS and 0.1% NaN3) at 300 g for 5 minutes and were subsequently incubated with Live/Dead fixable yellow dead cell stain as per manufacturer's protocol, to exclude any dead cells, wherever applicable. Then, cells were fixed and permeabilized using Cytofix/Cytoperm buffer (BD, catalog 554722) or transcription factor buffer set (BD, catalog 562574) and stained for the following proteins: ARL13b, IFT88, Inversin, Dynein, γ-tubulin, Alk1, KLF4, HO-1, NRF2, and bACTIN. Suitable secondary reagents were used to detect the respective proteins. Primary antibodies were diluted 1:50, and secondary antibodies were diluted 1:500. BD perm wash buffer (catalog 554723) was used for antibody dilutions and washing. Primary antibodies were incubated for 45 minutes and secondaries for 30 minutes at 4° C. Suitable secondary antibody controls were included. To quantify total ROS, assay kit was used as per the manufacturer's instruction (Thermo Fisher Scientific, catalog 88-5930-74). After the completion of staining, cells were resuspended in FACS buffer. Stained cells were run on a flow cytometer (BD LSRFortessa). Sample acquisition was done using FACSDiva software (BD) with subsequent analysis on FlowJo software. To determine the presence of the ciliary protein ARL13b on human RBCs, unlabeled RBCs prior to infusion into the variable height flow chamber, and effluent containing RBCs collected postflow and RBCs postinteraction with brain ECs, were labeled with FITC-conjugated Arl13b antibody for 30 minutes on ice. RBCs were then washed and tested by flow cytometric analysis as previously described (49). To determine whether ROS generation in brain ECs can be increased by sickle RBCs and contributes to deciliation, slides coated with brain ECs were sham-treated or pretreated with the NOX inhibitor apocynin at 10 μM for 1 hour at 37° C., washed, and fitted into the flow chamber. Treated brain ECs were then exposed to unlabeled sickle RBCs for 10 minutes. Sickle RBCs were lysed with RBC lysis buffer and brain ECs scraped from the glass slide for testing for ROS levels using CM-H2-DCFDA (Invitrogen) as described previously in detail (50). One hundred thousand events per sample were acquired and tested by flow cytometric analysis. In separate experiments, and as described above, unlabeled sickle RBCs were tested by flow cytometry for ARL13b ciliary protein binding prior to infusion into the chamber (baseline levels) and postflow and once sickle RBCs interacted with brain ECs treated with 10 μM apocynin.

[2] = system: Human brain microvascular ECs; assay: ROS generation in brain ECs exposed to sickle RBCs (CM-H2-DCFDA, flow cytometry); type: cell-based; settings: brain ECs pretreated with apocynin 10 μM for 1 hour, then exposed to SS RBCs for 10 minutes; P<0.0001
Method: Single-cell suspensions were washed 3 times with FACS buffer (1×PBS with 5% FBS and 0.1% NaN3) at 300 g for 5 minutes and were subsequently incubated with Live/Dead fixable yellow dead cell stain as per manufacturer's protocol, to exclude any dead cells, wherever applicable. Then, cells were fixed and permeabilized using Cytofix/Cytoperm buffer (BD, catalog 554722) or transcription factor buffer set (BD, catalog 562574) and stained for the following proteins: ARL13b, IFT88, Inversin, Dynein, γ-tubulin, Alk1, KLF4, HO-1, NRF2, and bACTIN. Suitable secondary reagents were used to detect the respective proteins. Primary antibodies were diluted 1:50, and secondary antibodies were diluted 1:500. BD perm wash buffer (catalog 554723) was used for antibody dilutions and washing. Primary antibodies were incubated for 45 minutes and secondaries for 30 minutes at 4° C. Suitable secondary antibody controls were included. To quantify total ROS, assay kit was used as per the manufacturer's instruction (Thermo Fisher Scientific, catalog 88-5930-74). After the completion of staining, cells were resuspended in FACS buffer. Stained cells were run on a flow cytometer (BD LSRFortessa). Sample acquisition was done using FACSDiva software (BD) with subsequent analysis on FlowJo software. […]

[3] = system: ARL13b on SS RBCs; assay: ARL13b bound to SS RBCs before and after flow chamber interaction with apocynin-pretreated brain ECs (flow cytometry); type: cell-based, human; settings: ECs treated with 10 μM apocynin
Method: HBMVECs were cultured until they reached confluence on clear glass slides precoated with 2% gelatin. Slides coated with brain ECs were washed, then fit into a variable height flow chamber and tested for their ability to support adhesion of RBCs. The flow chamber was mounted on the stage of an inverted phase contrast microscope (Diaphot, Nikon Inc.) connected to a thermoplate (Tokai Hit Co., Ltd.) set at 37° C. Fluorescence-labeled RBCs suspended at 0.2% (v/v) in PBS with Ca^2+ and Mg^2+ were infused into the flow chamber and allowed to adhere to brain ECs for 10 minutes without flow. Before exposure to flow, a minimum of 3 fields at each of 7 different locations along a line oriented to future flow were examined, and the total number of fluorescent cells was counted. Fluid flow (PBS with Ca^2+ and Mg^2+) with a calibrated syringe pump was then started for a period of 15 minutes. Effluent was collected and tested by flow cytometry for cilia shedding from brain ECs by RBC contact. After exposure to flow, the fields were examined, and the number of fluorescent adherent RBCs to brain ECs was counted. The fraction of adherent cells was presented as number of cells attached per field after exposure to flow/total number of cells present per field before flow. […] To quantify total ROS, assay kit was used as per the manufacturer's instruction (Thermo Fisher Scientific, catalog 88-5930-74). […]

[4] = PMA 50 ng/mL for 1 hour vs untreated
[5] = 20 μM VAS2870 1 hour prior to PMA 50 ng/mL

## CCCCCCCCCCCCCC(=O)O[C@@H]1[C@@H](C)[C@@]2(O)[C@@H](C=C(CO)C[C@]3(O)C(=O)C(C)=C[C@@H]23)[C@@H]2C(C)(C)[C@]12OC(C)=O [PMA]
[1]; [4]
  HO-1 levels: lower
  cilia-associated proteins NRF2, IFT88 and γ-tubulin levels: downregulated; also recorded: reduced; also recorded: decreased
  total ROS: induced ROS; also recorded: enhanced total ROS

## c1ccc(Cn2nnc3c(Sc4nc5ccccc5o4)ncnc32)cc1 [VAS2870]
[1]; [5]
  HO-1 levels: restored to control levels
  cilia-associated proteins NRF2, IFT88 and γ-tubulin levels: rescued; also recorded: restored to baseline; also recorded: returned to baseline
[1]; 20 μM VAS2870 1 hour prior to PMA 50 ng/mL, vs PMA alone
  total ROS: partially attenuated; also recorded: quenched ROS production

## COc1cc(C(C)=O)ccc1O [apocynin]
[2]
  ROS generation in ECs: reduced ROS generation in ECs to baseline levels
[3]
  cilia protein expression on sickle RBCs exposed to apocynin-treated brain ECs (in words): decreased cilia protein expression
[3]; before exposure SS RBCs showed approximately 35% ARL13b, P<0.05, n=6
  ARL13b expression on SS RBCs after exposure to apocynin-treated brain ECs: approximately 20%
